Measured values: ChEMBL document CHEMBL3638676, “Triazolopyridine compounds” (2015)

Target: Phosphodiesterase 3 (Homo sapiens, UniProt Q14432+Q13370)
Test: Scintillation Proximity Assay (SPA): The kinase assay is based on the LanthaScreen technology.
Type: protein assay

IC50: 13 µM
SMILES: Cn1cc(-c2cc(F)c3nnc(Sc4ccc5ncc(NCCO)cc5c4)n3c2)cn1
